The text below walks through data of paper PMC9841533, “Microtubule-Stabilizing 1,2,4-Triazolo[1,5-a]pyrimidines as Candidate Therapeutics for Neurodegenerative Disease: Matched Molecular Pair Analyses and Computational Studies Reveal New Structure–Activity Insights” (Journal of Medicinal Chemistry, 2022).

Where a name gives a salt, the structure may show the parent alone. Read-outs that look alike come from different tables or passages of the source.

For assay [1], the system named is total α-tubulin (α-Tub) levels in QBI293 cells. The assay can be described thus: QBI293 cell assay: total α-tubulin ELISA. The assay is classed as cell-based. How it is done:
(§1) All test compounds were initially screened in the same cell-based (QBI293) assay of MT stabilization used in our previous SAR studies[11],[12] so as to allow direct comparison with literature data. Changes in levels of acetylated α-tubulin (AcTub) and total α-tubulin (α-Tub), relative to vehicle-treated negative control cells, were determined after 4 h of incubation with test compounds at 1 and 10 μM. To account for possible day-to-day differences in the responsiveness of cells to MT-stabilizing treatment, compound-dependent changes in AcTub levels relative to DMSO-treated cells were also normalized to the corresponding changes caused by 100 nM of 5 that was used as a positive control. In addition, docking studies, binding free energy calculations, and in selected cases, molecular dynamic simulations were conducted using an X-ray structure of the vinca and seventh sites (PDB: 5NJH,[10]7CLD[13]). […] For selected compounds, additional studies included testing in the QBI293 cell AcTub assay at additional compound concentrations, and/or evaluation of test compounds for their ability to prevent MT collapse in primary neuron cultures treated with the phosphatase inhibitor, okadaic […] (OA). Finally, cytotoxicity studies in QBI293 and HeLa cells were also conducted for representative examples (Supporting Information).
(§2) Compound-induced changes in acetylated-tubulin and α-tubulin in QBI293 cells or primary mouse or rat neurons were as previously described.[11],[12] […] The plated cells were incubated overnight, after which the medium was aspirated and fresh medium containing vehicle (0.25–0.3% DMSO) or test compound was added. Test compounds were prepared as 4–20 mM stock solutions in 100% DMSO, and these were diluted in culture medium prior to addition to the QBI293 cells. After 4 h incubation, whole-cell extracts were prepared from the QBI293 cells as described[11] and the supernatant fraction from each sample was assessed for protein content by bicinchoninic acid (BCA) assay. The amount of acetyl-tubulin (AcTub) and α-tubulin (αTub) within the cell extract samples was quantified using specific enzyme-linked immunosorbent assays (ELISA), as previously described.[11] Acetyl-tubulin levels were determined in a similar manner in rat or mouse cortical neuron cultures in which embryonic dissociated cortical neurons were plated at 3 × 10^5 cells/well in poly-D-lysine-coated 12-well plates, essentially as previously described.[11] […] Culture homogenates were prepared for the determination of AcTub levels by ELISA as previously described.[11]

In assay [2] the test system is acetylated α-tubulin (AcTub) levels in QBI293 cells. The assay can be described thus: QBI293 cell assay of MT stabilization: acetylated α-tubulin ELISA. The format is cell-based. As to the method: as §1, §2
The test system is the same in assay [3]. Further details: method as in PMID 26980057, PMID 33411523. As to conditions: cited from earlier work; for Class (cellular phenotype): activity reported in previous studies.
The mark [4] stands for this setting: 4 h, 1 uM compound, read-out: AlfaTub (1uM).
The mark [5] stands for this setting: 4 h, 10 uM compound, read-out: AlfaTub (10 uM).
The mark [6] stands for this setting: 4 h, 1 uM compound, read-out: AcTub (1uM).
[7] abbreviates: 4 h, 10 uM compound, read-out: AcTub (10 uM).
Setting [8] is: 4 h incubation, 1 μM, read-out: α-Tub 1 μM, fold-change compared to vehicle (DMSO)-treated cells.
[9] abbreviates: 4 h incubation, 10 μM, read-out: α-Tub 10 μM, fold-change compared to vehicle (DMSO)-treated cells.
Setting [10] is: 4 h incubation, 1 μM, read-out: AcTub 1 μM, fold-change compared to vehicle (DMSO)-treated cells.
Where [11] appears, read: 4 h incubation, 10 μM, read-out: AcTub 10 μM, fold-change compared to vehicle (DMSO)-treated cells.

Regarding `C[C@@H](Nc1c(-c2c(F)cc(F)cc2F)c(Cl)nc2ncnn12)C1(C)N=N1` [Compound 63], the fold induction at 1 µM in assay [1] (setting [4]) came out at 0.92; in assay [2] (setting [6]), 1.42. For the same molecule, the values for the fold induction at 10 µM in assay [1] (setting [5]) and in assay [2] (setting [7]) were 0.89 and 4.28, respectively. In addition, the “AcTub (1 uM - normalized)” value in assay [2] (1 uM compound) was found to be 0.11. In addition, the “AcTub (10 uM - normalized)” value in assay [2] (10 uM compound) is given as 0.36. Moreover, the “AcTub 1 μM, fold-change compared to vehicle (DMSO)-treated cells” value in assay [3] (4 h incubation, 1 μM, reported in previous studies) is given as 1.42 ± 0.08 fold-change. In addition, the “Class (cellular phenotype)” value in assay [3] is on record as “I”.

As for `C[C@@H](Nc1c(-c2c(F)cc(F)cc2F)c(Cl)nc2ncnn12)C(C)(C)C` [Compound 10], the “Class (cellular phenotype)” value in assay [3] is recorded as “I”.

As for `CC(C)[C@@H](C)Nc1c(-c2c(F)cc(F)cc2F)c(Cl)nc2ncnn12` [Compound 1], in assay [3], the “Class (cellular phenotype)” value was “I”.

`C#Cc1cc(F)c(-c2c(Cl)nc3ncnn3c2N[C@H](C)C(C)C)c(F)c1` [Compound 34, (R)-5-Chloro-6-(4-ethynyl-2,6-difluorophenyl)-N-(3-methylbutan-2-yl)-[1,2,4]triazolo[1,5-a]pyrimidin-7-amine]: the fold induction at 1 µM in assay [1] (setting [4]) is 0.98; in assay [1] (setting [8]) it was 0.98 ± 0.002; in assay [2] (setting [6]), 3.56; in assay [2] (setting [10]) it was 3.56 ± 0.27. The fold induction at 10 µM in assay [1] (setting [5]) is 1.03; in assay [1] (setting [9]) it was 1.03 ± 0.008; in assay [2] (setting [7]), 8.02; in assay [2] (setting [11]) it was 8.02 ± 0.25. For the same molecule, the “AcTub (1 uM - normalized)” value in assay [2] (1 uM compound) is listed as 0.39. Besides, the “AcTub (10 uM - normalized)” value in assay [2] (10 uM compound) is 0.88. Further, the “AcTub 1 μM, fold-change compared to positive control compound 5 (100 nM) (in parentheses)” value (shortened to “AcTub 1 μM, fold-change … (in parentheses)”) in assay [2] (4 h incubation, 1 μM) is given as 0.39 fold-change. The “AcTub 10 μM, fold-change compared to positive control compound 5 (100 nM) (in parentheses)” value (from here on “AcTub 10 μM, fold-change”) in assay [2] (4 h incubation, 10 μM) was determined as 0.88 fold-change.

Consider `CC(C)[C@H](C)Nc1c(-c2c(F)cc(F)cc2F)c(Cl)nc2ncnn12` [Compound 7], for which the “Class (cellular phenotype)” value in assay [3] was “I”.

On to `C[C@@H](Nc1c(-c2c(F)cc(OCCCN(C)C)cc2F)c(Cl)nc2ncnn12)C(C)(C)C` [Compound 24, (R)-3-(4-(5-Chloro-7-((3,3-dimethylbutan-2-yl)amino)-[1,2,4]triazolo[1,5-a]pyrimidin-6-yl)-3,5-difluorophenoxy)-N,N-dimethylpropan-1-aminium Formate], for which the “total α-Tub at higher (30 μM) concentration” value in assay [1] (4 h) is “without a reduction of total α-Tub”. The “cellular AcTub at higher (30 μM) concentration” value in assay [2] (4 h, 30 μM) is reported as “further concentration-dependent decrease in cellular AcTub”.

`C[C@@H](Nc1c(-c2c(F)cc(C#CCN(C)C)cc2F)c(Cl)nc2ncnn12)C(C)(C)C` [Compound 55, (R)-5-Chloro-6-(4-(3-(dimethylamino)prop-1-yn-1-yl)-2,6-difluorophenyl)-N-(3,3-dimethylbutan-2-yl)-[1,2,4]triazolo[1,5-a]pyrimidin-7-amine]: the fold induction at 1 µM in assay [1] (setting [4]) worked out at 1; in assay [1] (setting [8]), 1 ± 0.05; in assay [2] (setting [6]), 1.36; in assay [2] (setting [10]) it was 1.36 ± 0.08. The fold induction at 10 µM in assay [1] (setting [5]) was 0.84; in assay [1] (setting [9]), 0.87 ± 0.01; in assay [2] (setting [7]) it was 4.32; in assay [2] (setting [11]), 4.32 ± 0.28. Moreover, the “AcTub (1 uM - normalized)” value in assay [2] (1 uM compound) was found to be 0.45. In assay [2] (10 uM compound), the “AcTub (10 uM - normalized)” value is 1.43. For the same molecule, the “AcTub 1 μM, fold-change … (in parentheses)” value in assay [2] (4 h incubation, 1 μM) came to 0.45 fold-change. Also, the “AcTub 10 μM, fold-change” value in assay [2] (4 h incubation, 10 μM) is 1.43 fold-change.

Consider `C[C@H](Nc1c(-c2c(F)cc(C#CCCCO)cc2F)c(Cl)nc2ncnn12)C(F)(F)F` [Compound 43, (S)-5-(4-(5-Chloro-7-((1,1,1-trifluoropropan-2-yl)amino)-[1,2,4]triazolo[1,5-a]pyrimidin-6-yl)-3,5-difluorophenyl)pent-4-yn-1-ol], for which the fold induction at 1 µM in assay [1] (setting [4]) was 0.93; in assay [1] (setting [8]) it was 0.93 ± 0.02; in assay [2] (setting [6]) it was 17.1; in assay [2] (setting [10]) it was 17.1 ± 0.5. Further, the fold induction at 10 µM in assay [1] (setting [5]) turned out to be 0.87; in assay [1] (setting [9]), 0.87 ± 0.03; in assay [2] (setting [7]) it was 14.4; in assay [2] (setting [11]), 14.4 ± 0.6. Also, in assay [1] (4 h), the “total α-Tub at higher (30 μM) concentration” value is reported as “reduction in total tubulin levels could be detected only at higher concentrations”. For the same molecule, the “AcTub (1 uM - normalized)” value in assay [2] (1 uM compound) is on record as 2.29. In addition, the “AcTub (10 uM - normalized)” value in assay [2] (10 uM compound) turned out to be 1.93. In addition, in assay [2] (4 h incubation, 1 μM), the “AcTub 1 μM, fold-change … (in parentheses)” value was determined as 2.29 fold-change. In addition, the “AcTub 10 μM, fold-change” value in assay [2] (4 h incubation, 10 μM) was 1.93 fold-change.

In the case of `C[C@@H](Nc1c(-c2c(F)cc(F)cc2F)c(Cl)nc2ncnn12)C1CC1` [Compound 17, (R)-5-Chloro-N-(1-cyclopropylethyl)-6-(2,4,6-trifluorophenyl)-[1,2,4]triazolo[1,5-a]pyrimidin-7-amine], the fold induction at 1 µM was found to be 1.06 in assay [1] (setting [4]), 1.06 ± 0.07 in assay [1] (setting [8]), 1.95 in assay [2] (setting [6]) and 1.95 ± 0.18 in assay [2] (setting [10]). Also, the fold induction at 10 µM is 1.16 in assay [1] (setting [5]), 1.16 ± 0.02 in assay [1] (setting [9]), 3.99 in assay [2] (setting [7]) and 3.99 ± 0.1 in assay [2] (setting [11]). In addition, the “AcTub (1 uM - normalized)” value in assay [2] (1 uM compound) was found to be 0.19. Moreover, the “AcTub (10 uM - normalized)” value in assay [2] (10 uM compound) came to 0.4. The “AcTub 1 μM, fold-change … (in parentheses)” value in assay [2] (4 h incubation, 1 μM) is recorded as 0.19 fold-change. Also, the “AcTub 10 μM, fold-change” value in assay [2] (4 h incubation, 10 μM) is listed as 0.40 fold-change.

`C[C@@H](Nc1c(-c2c(F)cc(C#CCCN)cc2F)c(Cl)nc2ncnn12)C(C)(C)C` [Compound 57, (R)-6-(4-(4-Aminobut-1-yn-1-yl)-2,6-difluorophenyl)-5-chloro-N-(3,3-dimethylbutan-2-yl)-[1,2,4]triazolo[1,5-a]pyrimidin-7-amine Hydrochloride]: the fold induction at 1 µM stood at 0.96 in assay [1] (setting [4]), 0.96 ± 0.026 in assay [1] (setting [8]), 2.49 in assay [2] (setting [6]) and 2.49 ± 0.17 in assay [2] (setting [10]). Also, the fold induction at 10 µM worked out at 0.91 in assay [1] (setting [5]), 0.91 ± 0.12 in assay [1] (setting [9]), 3.66 in assay [2] (setting [7]) and 3.66 ± 0.58 in assay [2] (setting [11]). For the same molecule, the “AcTub (1 uM - normalized)” value in assay [2] (1 uM compound) was 0.83. For the same molecule, in assay [2] (10 uM compound), the “AcTub (10 uM - normalized)” value is 1.21. The “AcTub 1 μM, fold-change … (in parentheses)” value in assay [2] (4 h incubation, 1 μM) was 0.83 fold-change. Further, the “AcTub 10 μM, fold-change” value in assay [2] (4 h incubation, 10 μM) was determined as 1.21 fold-change.

In the case of `C[C@H](Nc1c(-c2c(F)cc(F)cc2F)c(Cl)nc2ncnn12)C(C)(C)C` [Compound 12], in assay [3], the “Class (cellular phenotype)” value was “I”.

Consider `Fc1cc(F)c(-c2c(Cl)nc3ncnn3c2NCC2CCC2)c(F)c1` [Compound 15, 5-Chloro-N-(cyclobutylmethyl)-6-(2,4,6-trifluorophenyl)-[1,2,4]triazolo[1,5-a]pyrimidin-7-amine], for which the fold induction at 1 µM was found to be 1.07 in assay [1] (setting [4]), 1.07 ± 0.01 in assay [1] (setting [8]), 1.55 in assay [2] (setting [6]) and 1.55 ± 0.03 in assay [2] (setting [10]). For the same molecule, the fold induction at 10 µM in assay [1] (setting [5]) was found to be 0.96; in assay [1] (setting [9]), 0.96 ± 0.03; in assay [2] (setting [7]), 3.08; in assay [2] (setting [11]), 3.08 ± 0.03. In assay [2] (1 uM compound), the “AcTub (1 uM - normalized)” value turned out to be 0.22. The “AcTub (10 uM - normalized)” value in assay [2] (10 uM compound) was found to be 0.44. The “AcTub 1 μM, fold-change … (in parentheses)” value in assay [2] (4 h incubation, 1 μM) was 0.22 fold-change. For the same molecule, the “AcTub 10 μM, fold-change” value in assay [2] (4 h incubation, 10 μM) turned out to be 0.44 fold-change.
